In PubChem BioAssay (NCI):
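A five-concentration, 48-hour dose response in 96-well plates underlies each endpoint, interpolated linearly between surrounding concentrations. TGI marks complete inhibition of growth.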

What was measured:
Assay in all cases: NCI tumour cell line growth inhibition, 48 h
[1] = tested on: 786-0 renal
[2] = tested on: A498 renal
[3] = tested on: A549 NSCLC
[4] = tested on: ACHN renal
[5] = tested on: CAKI-1 renal
[6] = tested on: CCRF-CEM leukemia
[7] = tested on: COLO 205 colon
[8] = tested on: DLD-1 colon
[9] = tested on: DMS 114 small cell lung
[10] = tested on: DMS 273 small cell lung
[11] = tested on: EKVX NSCLC
[12] = tested on: HCC-2998 colon
[13] = tested on: HCT-116 colon
[14] = tested on: HCT-15 colon
[15] = tested on: HL-60(TB) leukemia
[16] = tested on: HOP-18 NSCLC
[17] = tested on: HOP-62 NSCLC
[18] = tested on: HOP-92 NSCLC
[19] = tested on: HT29 colon
[20] = tested on: IGROV1 ovarian
[21] = tested on: K-562 leukemia
[22] = tested on: KM12 colon
[23] = tested on: KM20L2 colon
[24] = tested on: LOX IMVI melanoma
[25] = tested on: LXFL 529 NSCLC
[26] = tested on: M14 melanoma
[27] = tested on: M19-MEL melanoma
[28] = tested on: MALME-3M melanoma
[29] = tested on: MOLT-4 leukemia
[30] = tested on: NCI-H226 lung
[31] = tested on: NCI-H23 lung
[32] = tested on: NCI-H460 lung
[33] = tested on: NCI-H522 lung
[34] = tested on: OVCAR-3 ovarian
[35] = tested on: OVCAR-4 ovarian
[36] = tested on: OVCAR-5 ovarian
[37] = tested on: OVCAR-8 ovarian
[38] = tested on: RPMI-8226 leukemia
[39] = tested on: RXF 393 renal
[40] = tested on: RXF-631 renal
[41] = tested on: SF-268 CNS
[42] = tested on: SF-295 CNS
[43] = tested on: SK-MEL-2 melanoma
[44] = tested on: SK-MEL-28 melanoma
[45] = tested on: SK-MEL-5 melanoma
[46] = tested on: SK-OV-3 ovarian
[47] = tested on: SN12C renal
[48] = tested on: SNB-19 CNS
[49] = tested on: SNB-75 CNS
[50] = tested on: SNB-78 CNS
[51] = tested on: SR leukemia
[52] = tested on: SW-620 colon
[53] = tested on: TK-10 renal
[54] = tested on: U251 CNS
[55] = tested on: UACC-257 melanoma
[56] = tested on: UACC-62 melanoma
[57] = tested on: UO-31 renal
[58] = tested on: SF-539 CNS
[59] = tested on: XF 498 CNS

## CC(Cl)(/C=C/Cl)C(Cl)/C=C/C(Cl)(CCl)CBr (stereo not drawn)
[1]
  TGI: 10.8 µM
[2]
  TGI: 18.4 µM
[3]
  TGI: 47.3 µM
[4]
  TGI: 18.1 µM
[5]
  TGI: 28.1 µM
[6]
  TGI: 11.3 µM
[7]
  TGI: 4.94 µM
[8]
  TGI: 12.5 µM
[9]
  TGI: 5.32 µM
[10]
  TGI: 17.1 µM
[11]
  TGI: > 77.3 µM
[12]
  TGI: 33.2 µM
[13]
  TGI: 3.39 µM
[14]
  TGI: 4.24 µM
[15]
  TGI: 5.32 µM
[16]
  TGI: 11.6 µM
[17]
  TGI: 42.8 µM
[18]
  TGI: 4.01 µM
[19]
  TGI: 4.66 µM
[20]
  TGI: 25.1 µM
[21]
  TGI: 14.2 µM
[22]
  TGI: 20.8 µM
[23]
  TGI: 23.9 µM
[24]
  TGI: 4.5 µM
[25]
  TGI: 2.5 µM
[26]
  TGI: 7.89 µM
[27]
  TGI: 13.5 µM
[28]
  TGI: 13.7 µM
[29]
  TGI: 3.36 µM
[30]
  TGI: 22.9 µM
[31]
  TGI: 7.16 µM
[32]
  TGI: 15.4 µM
[33]
  TGI: 3.33 µM
[34]
  TGI: 25.3 µM
[35]
  TGI: 9.36 µM
[36]
  TGI: 29.5 µM
[37]
  TGI: 13.2 µM
[38]
  TGI: 7.31 µM
[39]
  TGI: 2.92 µM
[40]
  TGI: 4.05 µM
[41]
  TGI: 11.3 µM
[42]
  TGI: 20.2 µM
[43]
  TGI: 19.8 µM
[44]
  TGI: 8.27 µM
[45]
  TGI: 25.1 µM
[46]
  TGI: 30.9 µM
[47]
  TGI: 12.5 µM
[48]
  TGI: 27.3 µM
[49]
  TGI: 14.5 µM
[50]
  TGI: 4.95 µM
[51]
  TGI: 2.07 µM
[52]
  TGI: 8 µM
[53]
  TGI: 20.5 µM
[54]
  TGI: 8.37 µM
[55]
  TGI: 7.02 µM
[56]
  TGI: 5.2 µM
[57]
  TGI: 28.6 µM

## O=C(O)CN(c1ccc(Cl)cc1)S(=O)(=O)c1ccccc1
[1]
  TGI: > 100 µM
[2]
  TGI: > 100 µM
[3]
  TGI: > 100 µM
[4]
  TGI: > 100 µM
[5]
  TGI: > 100 µM
[6]
  TGI: > 100 µM
[7]
  TGI: > 100 µM
[8]
  TGI: > 100 µM
[10]
  TGI: > 100 µM
[11]
  TGI: > 100 µM
[14]
  TGI: > 100 µM
[15]
  TGI: > 100 µM
[16]
  TGI: > 100 µM
[18]
  TGI: > 100 µM
[19]
  TGI: > 100 µM
[20]
  TGI: > 100 µM
[21]
  TGI: > 100 µM
[22]
  TGI: > 100 µM
[23]
  TGI: > 100 µM
[24]
  TGI: > 100 µM
[25]
  TGI: > 100 µM
[26]
  TGI: > 100 µM
[27]
  TGI: > 100 µM
[28]
  TGI: > 100 µM
[29]
  TGI: > 100 µM
[30]
  TGI: > 100 µM
[31]
  TGI: > 100 µM
[32]
  TGI: > 100 µM
[33]
  TGI: > 100 µM
[34]
  TGI: > 100 µM
[35]
  TGI: > 100 µM
[36]
  TGI: > 100 µM
[37]
  TGI: > 100 µM
[38]
  TGI: > 100 µM
[39]
  TGI: > 100 µM
[40]
  TGI: > 100 µM
[41]
  TGI: > 100 µM
[42]
  TGI: > 100 µM
[58]
  TGI: > 100 µM
[43]
  TGI: > 100 µM
[44]
  TGI: > 100 µM
[45]
  TGI: > 100 µM
[46]
  TGI: > 100 µM
[47]
  TGI: > 100 µM
[48]
  TGI: > 100 µM
[49]
  TGI: > 100 µM
[52]
  TGI: > 100 µM
[53]
  TGI: > 100 µM
[54]
  TGI: > 100 µM
[55]
  TGI: > 100 µM
[56]
  TGI: > 100 µM
[57]
  TGI: > 100 µM
[59]
  TGI: > 100 µM

## O=[N+]([O-])c1ccc(-c2ccc(/C=N/n3c(-c4ccc(Cl)cc4)n[nH]c3=S)o2)cc1
[1]
  TGI: 46.2 µM
[2]
  TGI: > 100 µM
[3]
  TGI: > 64.6 µM
[4]
  TGI: > 60.8 µM
[5]
  TGI: > 90.1 µM
[6]
  TGI: > 100 µM
[7]
  TGI: > 75.5 µM
[8]
  TGI: > 100 µM
[9]
  TGI: > 100 µM
[10]
  TGI: > 63.3 µM
[11]
  TGI: > 100 µM
[12]
  TGI: > 100 µM
[13]
  TGI: 43.6 µM
[14]
  TGI: > 100 µM
[15]
  TGI: > 100 µM
[16]
  TGI: > 100 µM
[17]
  TGI: > 52.9 µM
[18]
  TGI: > 94.3 µM
[19]
  TGI: > 55.2 µM
[20]
  TGI: > 100 µM
[21]
  TGI: > 31.6 µM
[22]
  TGI: 61.4 µM
[23]
  TGI: > 65.8 µM
[24]
  TGI: > 100 µM
[25]
  TGI: > 71.1 µM
[26]
  TGI: 32.3 µM
[27]
  TGI: > 55.8 µM
[28]
  TGI: 43.1 µM
[29]
  TGI: > 100 µM
[30]
  TGI: > 58.5 µM
[31]
  TGI: > 56.6 µM
[32]
  TGI: > 54.7 µM
[33]
  TGI: > 100 µM
[34]
  TGI: > 66.8 µM
[35]
  TGI: > 61.8 µM
[36]
  TGI: > 100 µM
[37]
  TGI: > 100 µM
[38]
  TGI: > 31.6 µM
[40]
  TGI: > 55.5 µM
[41]
  TGI: > 100 µM
[42]
  TGI: > 64 µM
[58]
  TGI: > 62.7 µM
[43]
  TGI: > 100 µM
[44]
  TGI: 34 µM
[45]
  TGI: 49.8 µM
[46]
  TGI: > 100 µM
[47]
  TGI: > 100 µM
[48]
  TGI: > 72.7 µM
[49]
  TGI: > 83.1 µM
[50]
  TGI: > 70.3 µM
[51]
  TGI: > 83.6 µM
[52]
  TGI: > 68.5 µM
[53]
  TGI: > 64.7 µM
[54]
  TGI: > 53.7 µM
[55]
  TGI: > 100 µM
[56]
  TGI: > 100 µM
[57]
  TGI: > 100 µM
[59]
  TGI: 46.6 µM
